Data published in patent US20020193320A1, “C-2 modified erythromycin derivatives” (priority 1999, published 2002).

Experiments:
Experiment in all cases: In vitro antibacterial activity, agar dilution MIC
Type in all cases: cell-based
Candida albicans CCH 442 = system: Candida albicans CCH 442; design: unit not given here; settings: code TT, BHI agar, 35-37° C., 20 to 24 hours
Protocol: (§1) Representative compounds of the present invention were assayed in vitro for antibacterial activity as follows: Twelve petri dishes containing successive aqueous dilutions of the test compound mixed with 10 mL of sterilized Brain Heart Infusion (BHI) agar (Difco 0418-01-5) were prepared. Each plate was inoculated with 1:100 (or 1:10 for slow-growing strains, such as Micrococcus and Streptococcus) dilutions of up to 32 different microorganisms, using a Steers replicator block. The inoculated plates were incubated at 35-37° C. for 20 to 24 hours. In addition, a control plate, using BHI agar containing no test compound, was prepared and incubated at the beginning and end of each test.
(§2) An additional plate containing a compound having known susceptibility patterns for the organisms being tested and belonging to the same antibiotic class as the test compound was also prepared and incubated as a further control, as well as to provide test-to-test comparability.
(§3) After incubation, each plate was visually inspected. The minimum inhibitory concentration (MIC) was defined as the lowest concentration of drug yielding no growth, a slight haze, or sparsely isolated colonies on the inoculum spot as compared to the growth control.

[1] = system: Enterococcus faecium ATCC X043; design: unit not given here; settings: code II, BHI agar, 35-37° C., 20 to 24 hours
Protocol: as §1, §2, §3

Escherichia coli DC-2 = system: Escherichia coli DC-2; design: unit not given here; settings: code SS, BHI agar, 35-37° C., 20 to 24 hours
Protocol: as §1, §2, §3

Escherichia coli JUHL = system: Escherichia coli JUHL; design: unit not given here; settings: code QQ, BHI agar, 35-37° C., 20 to 24 hours
Protocol: as §1, §2, §3

Escherichia coli SS = system: Escherichia coli SS; design: unit not given here; settings: code RR, BHI agar, 35-37° C., 20 to 24 hours
Protocol: as §1, §2, §3

[2] = system: Micrococcus luteus ATCC 9341; design: unit not given here; settings: code OO, BHI agar, 35-37° C., 20 to 24 hours
Protocol: as §1, §2, §3

[3] = system: Mycobacterium smegmatis ATCC 114; design: unit not given here; settings: code UU, BHI agar, 35-37° C., 20 to 24 hours
Protocol: as §1, §2, §3

[4] = system: Nocardia Asteroides ATCC 99700; design: unit not given here; settings: code VV, BHI agar, 35-37° C., 20 to 24 hours
Protocol: as §1, §2, §3

[5] = system: Staphylococcus aureus 1775; design: unit not given here; settings: code GG, BHI agar, 35-37° C., 20 to 24 hours
Protocol: as §1, §2, §3

[6] = system: Staphylococcus aureus A-5177; design: unit not given here; settings: code BB, BHI agar, 35-37° C., 20 to 24 hours
Protocol: as §1, §2, §3

[7] = system: Staphylococcus aureus A-5278; design: unit not given here; settings: code CC, BHI agar, 35-37° C., 20 to 24 hours
Protocol: as §1, §2, §3

[8] = system: Staphylococcus aureus ATCC 6538P; design: unit not given here; settings: code AA, BHI agar, 35-37° C., 20 to 24 hours
Protocol: as §1, §2, §3

[9] = system: Staphylococcus aureus CMX 553; design: unit not given here; settings: code FF, BHI agar, 35-37° C., 20 to 24 hours
Protocol: as §1, §2, §3

[10] = system: Staphylococcus aureus CMX 642A; design: unit not given here; settings: code DD, BHI agar, 35-37° C., 20 to 24 hours
Protocol: as §1, §2, §3

[11] = system: Staphylococcus aureus NCTC 10649M; design: unit not given here; settings: code EE, BHI agar, 35-37° C., 20 to 24 hours
Protocol: as §1, §2, §3

[12] = system: Staphylococcus epidermidis 3519; design: unit not given here; settings: code HH, BHI agar, 35-37° C., 20 to 24 hours
Protocol: as §1, §2, §3

[13] = system: Streptococcus agalactiae CMX 508; design: unit not given here; settings: code KK, BHI agar, 35-37° C., 20 to 24 hours
Protocol: as §1, §2, §3

[14] = system: Streptococcus bovis A-5169; design: unit not given here; settings: code JJ, BHI agar, 35-37° C., 20 to 24 hours
Protocol: as §1, §2, §3

[15] = system: Streptococcus pyogenes 930; design: unit not given here; settings: code MM, BHI agar, 35-37° C., 20 to 24 hours
Protocol: as §1, §2, §3

[16] = system: Streptococcus pyogenes PIU 2548; design: unit not given here; settings: code NN, BHI agar, 35-37° C., 20 to 24 hours
Protocol: as §1, §2, §3

[17] = system: Haemophilis Influenzae DILL AMP R; settings: code WW, 35-37° C., 20 to 24 hours
Protocol: as §1, §2, §3

[18] = system: Micrococcus luteus ATCC 4698; settings: code PP, BHI agar, 35-37° C., 20 to 24 hours
Protocol: as §1, §2, §3

[19] = system: Streptococcus Pneumonia 5649; settings: code ZZA (code list: ZA), 35-37° C., 20 to 24 hours
Protocol: as §1, §2, §3

[20] = system: Streptococcus Pneumonia 5979; settings: code ZZ, 35-37° C., 20 to 24 hours
Protocol: as §1, §2, §3

[21] = system: Streptococcus Pneumonia ATCC 6303; settings: code XX, 35-37° C., 20 to 24 hours
Protocol: as §1, §2, §3

[22] = system: Streptococcus Pneumonia GYR 1171; settings: code YY, 35-37° C., 20 to 24 hours
Protocol: as §1, §2, §3

[23] = system: Streptococcus pyogenes EES61; settings: code LL, BHI agar, 35-37° C., 20 to 24 hours
Protocol: as §1, §2, §3

| Compound | Antibacterial Activity (MIC) (Candida albicans CCH 442) | Antibacterial Activity (MIC) [1] | Antibacterial Activity (MIC) (Escherichia coli DC-2) | Antibacterial Activity (MIC) (Escherichia coli JUHL) | Antibacterial Activity (MIC) (Escherichia coli SS) | Antibacterial Activity (MIC) [2] | Antibacterial Activity (MIC) [3] | Antibacterial Activity (MIC) [4] | Antibacterial Activity (MIC) [5] | Antibacterial Activity (MIC) [6] | Antibacterial Activity (MIC) [7] | Antibacterial Activity (MIC) [8] | Antibacterial Activity (MIC) [9] | Antibacterial Activity (MIC) [10] | Antibacterial Activity (MIC) [11] | Antibacterial Activity (MIC) [12] | Antibacterial Activity (MIC) [13] | Antibacterial Activity (MIC) [14] | Antibacterial Activity (MIC) [15] | Antibacterial Activity (MIC) [16] | further results |
| --- | --- | --- | --- | --- | --- | --- | --- | --- | --- | --- | --- | --- | --- | --- | --- | --- | --- | --- | --- | --- | --- |
| C=CCC1(C)C(=O)OC(CC)C2(C)OC(=O)NC2C(C)C(=O)C(C)CC(C)(OCC=Cc2cnc3ccccc3c2)C(OC2OC(C)CC(N(C)C)C2O)C(C)C1=O (stereo not shown) [Example 4, Compound of formula (II): R^a is —CH2CH═CH—(3-quinolinyl), R^b is H, Y and Z together are O, T is —NH—, R is —CH2CH═CH2] | >100 | 0.2 | >100 | >100 | 3.1 | 0.1 | 3.1 | 0.1 | >100 | 0.39 | >100 | 0.78 | 0.39 | 0.78 | 0.78 | 0.39 | 0.2 | 0.05 | 12.5 | 0.78 | Antibacterial Activity (MIC) [17]: 16; Antibacterial Activity (MIC) [18]: 0.78; Antibacterial Activity (MIC) [19]: 2; Antibacterial Activity (MIC) [20]: 64; Antibacterial Activity (MIC) [21]: 0.25; Antibacterial Activity (MIC) [22]: 0.25; Antibacterial Activity (MIC) [23]: 0.1 |
| CCC1OC(=O)C(C)(O)C(=O)C(C)C(OC2OC(C)CC(N(C)C)C2O)C(C)(OC)CC(C)C(=O)C(C)C2N(CCCCc3ccccc3)C(=O)OC12C (stereo not shown) [Example 10, Compound of formula (II): R^a is CH3, R^b is H, Y and Z together are O, T is —N(W(R^g))-, W is —(CH2)p-, p is 4, R^g is phenyl R is —OH] | 25 | 0.39 | >100 | >100 | 3.1 | 0.39 | 1.56 | 1.56 | 25 | 1.56 | 25 | 1.56 | 1.56 | 1.56 | 1.56 | 1.56 | 0.2 | 0.2 | 6.2 | 1.56 | Antibacterial Activity (MIC) ([17]; unit assumed): 16 µg/mL; Antibacterial Activity (MIC) [18]: 0.39; Antibacterial Activity (MIC) [23]: 0.2 |
| Compound of formula (II): R^a is CH3, R^b is H, Y and Z together are O, T is —N(W(R^g)-, W is —(CH2)p-, p is 4, R^g is phenyl, R is —OH [Example 2] | 100 | 0.39 | >100 | >100 | 6.2 | 0.39 | 3.1 | 3.1 | 100 | 1.56 | 100 | 1.56 | 1.56 | 3.1 | 1.56 | 3.1 | 0.2 | 0.2 | 25 | 0.39 | Antibacterial Activity (MIC) ([17]; unit assumed): 64 µg/mL; Antibacterial Activity (MIC) ([18]; unit assumed): 0.78 µg/mL; Antibacterial Activity (MIC) ([19]; unit assumed): 1 µg/mL; Antibacterial Activity (MIC) ([20]; unit assumed): 32 µg/mL; Antibacterial Activity (MIC) ([21]; unit assumed): 0.5 µg/mL; Antibacterial Activity (MIC) ([22]; unit assumed): 0.25 µg/mL; Antibacterial Activity (MIC) ([23]; unit assumed): 0.1 µg/mL |
| CC[C@H]1OC(=O)[C@H](C)[C@@H](O[C@H]2C[C@@](C)(OC)[C@@H](O)[C@H](C)O2)[C@H](C)[C@@H](O[C@@H]2O[C@H](C)C[C@H](N(C)C)[C@H]2O)[C@](C)(O)C[C@@H](C)C(=O)[C@H](C)[C@@H](O)[C@]1(C)O [Ery. A, Erythromycin A, reference compound] | >100 | 0.05 | >100 | >100 | 0.78 | 0.05 | 3.1 | 0.1 | >100 | 3.1 | >100 | 0.2 | 0.39 | 0.39 | 0.39 | 0.39 | 0.05 | 0.02 | >100 | 6.2 | Antibacterial Activity (MIC) [17]: 4; Antibacterial Activity (MIC) [18]: 0.2; Antibacterial Activity (MIC) [19]: 16; Antibacterial Activity (MIC) [21]: 0.06; Antibacterial Activity (MIC) [22]: 0.06; Antibacterial Activity (MIC) [23]: 0.05 |
